Measured values published in patent US8952024B2, “Herbicidal pyrimidone derivatives” (E I du Pont de Nemours and Company, priority 2009, dated 2015).

Columns and labels:
Format in all cases: in vivo
[1] = tested on: barnyardgrass (Echinochloa crus-galli); assay: Test B flooded paddy test; details: for Plant response rating, Flood, Barnyardgrass: 250 g ai/ha, flooded paddy test, visual rating on 0 to 100 scale (0 no effect, 100 complete control) after 13 to 15 days; for Plant response rating, Barnyardgrass: Flood (flooded paddy test), 13 to 15 days; for Barnyardgrass plant response rating: Flood, 31 g ai/ha, scale 0 to 100 (0 no effect, 100 complete control)
Procedure, shortened: (§1)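 2-leaf seedlings; pots flooded 3 cm over soil at treatment; cpd dosed into floodwater, depth kept constant. Greenhouse 13–15 d. Visual rating vs untreated controls, 0 = no effect, 100 = complete control.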

[2] = tested on: umbrella sedge (Cyperus difformis); assay: Test B flooded paddy test; details: for Plant response rating, Flood, Sedge, Umbrella: 250 g ai/ha, flooded paddy test, visual rating on 0 to 100 scale (0 no effect, 100 complete control) after 13 to 15 days; for Plant response rating, Sedge, Umbrella: Flood (flooded paddy test), 13 to 15 days; for Sedge, Umbrella plant response rating: Flood, 31 g ai/ha, scale 0 to 100 (0 no effect, 100 complete control)
Procedure, shortened: as §1

[3] = tested on: goosegrass (Eleusine indica); assay: Test B pre-/postemergence plant response; details: for Goosegrass plant response rating (0 to 100 scale): 62 g ai/ha, 0 is no effect, 13 to 15 days
Procedure, shortened: (§2)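 Visual injury, 0–100 scale (100 = complete control), rated against controls after 13 to 15 days in greenhouse. Pre-emergence: seeds in loam/sand soil, treated at planting. Post-emergence: 1- to 4-leaf plants (2 to 18 cm) in peat/vermiculite medium. Compounds formulated in non-phytotoxic solvent with surfactant.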

[4] = tested on: large crabgrass (Digitaria sanguinalis); assay: Test B pre-/postemergence plant response; details: for Crabgrass, Large plant response rating (0 to 100 scale): 62 g ai/ha, 0 is no effect, 13 to 15 days
Procedure, shortened: as §2

[5] = tested on: lambsquarters (Chenopodium album); assay: Test B pre-/postemergence plant response; details: for Lambsquarters plant response rating (0 to 100 scale): 62 g ai/ha, 0 is no effect, 13 to 15 days
Procedure, shortened: as §2

[6] = tested on: cocklebur (Xanthium strumarium); assay: Test B pre-/postemergence plant response; details: for Cocklebur plant response rating (0 to 100 scale): 62 g ai/ha, 0 is no effect, 13 to 15 days
Procedure, shortened: as §2

[7] = tested on: green foxtail (Setaria viridis); assay: Test B pre-/postemergence plant response; details: for Foxtail, Green plant response rating (0 to 100 scale): 62 g ai/ha, 0 is no effect, 13 to 15 days
Procedure, shortened: as §2

[8] = tested on: yellow nutsedge (Cyperus esculentus); assay: Test B pre-/postemergence plant response; details: for Nutsedge, Yellow plant response rating (0 to 100 scale): 62 g ai/ha, 0 is no effect, 13 to 15 days
Procedure, shortened: as §2

wild oat (Avena fatua) = assay: Test B pre-/postemergence plant response; details: for Oat, Wild plant response rating (0 to 100 scale): 62 g ai/ha, 0 is no effect, 13 to 15 days
Procedure, shortened: as §2

[9] = tested on: wheat (Triticum aestivum); assay: Test B pre-/postemergence plant response; details: for Wheat plant response rating (0 to 100 scale): 62 g ai/ha, 0 is no effect, 13 to 15 days
Procedure, shortened: as §2

[10] = tested on: bermudagrass (Cynodon dactylon); assay: Test B pre-/postemergence plant response; details: for Bermudagrass plant response rating (0 to 100 scale): 62 g ai/ha, 0 is no effect, 13 to 15 days
Procedure, shortened: as §2

[11] = tested on: morningglory (Ipomoea coccinea); assay: Test B pre-/postemergence plant response; details: for Morningglory plant response rating (0 to 100 scale): 62 g ai/ha, 0 is no effect, 13 to 15 days
Procedure, shortened: as §2

[12] = 62 g ai/ha, scale of 0 to 100 where 0 is no effect and 100 is complete control
[13] = 125 g ai/ha, scale 0 to 100, 0 is no effect, 100 is complete control
[14] = 31 g ai/ha, postemergence, scale 0 to 100, 0 is no effect, 100 is complete control
[15] = postemergence, 100 is complete control
[16] = Postemergence, 250 g ai/ha, scale 0 to 100 (0 no effect, 100 complete control)
[17] = Postemergence, 125 g ai/ha, visual rating after 13 to 15 days, scale 0 (no effect) to 100 (complete control)

CCCCCn1c(-c2ccccc2)ncc(C(=O)C2=C(O)CCCC2=O)c1=O [Compound 89]
Plant response rating, Flood, Barnyardgrass [1]: 40 | Plant response rating, Barnyardgrass [1, 12]: 20 | Plant response rating, Barnyardgrass [1, 13]: 30 | Barnyardgrass plant response rating [1]: 20 | Plant response rating, Flood, Sedge, Umbrella [2]: 85 | Plant response rating, Sedge, Umbrella [2, 12]: 85 | Plant response rating, Sedge, Umbrella [2, 13]: 85 | Sedge, Umbrella plant response rating [2]: 30 | Plant response rating, Goosegrass [3, 14]: 55 | Goosegrass plant response rating (0 to 100 scale) [3, 15]: 65 | Plant response rating, Goosegrass [3, 16]: 80 | Plant response rating, Crabgrass, Large [4, 14]: 85 | Crabgrass, Large plant response rating (0 to 100 scale) [4, 15]: 95 | Plant response rating, Crabgrass, Large [4, 17]: 95 | Plant response rating, Crabgrass, Large [4, 16]: 98 | Plant response rating, Lambsquarters [5, 14]: 95 | Lambsquarters plant response rating (0 to 100 scale) [5, 15]: 98 | Plant response rating, Lambsquarters [5, 16]: 100 | Plant response rating, Cocklebur [6, 14]: 10 | Cocklebur plant response rating (0 to 100 scale) [6, 15]: 60 | Plant response rating, Cocklebur [6, 17]: 65 | Plant response rating, Cocklebur [6, 16]: 70 | Plant response rating, Foxtail, Green [7, 14]: 60 | Foxtail, Green plant response rating (0 to 100 scale) [7, 15]: 70 | Plant response rating, Foxtail, Green [7, 16]: 80 | Plant response rating, Nutsedge, Yellow [8, 14]: 35 | Nutsedge, Yellow plant response rating (0 to 100 scale) [8, 15]: 55 | Plant response rating, Nutsedge, Yellow [8, 16]: 75 | Plant response rating, Oat, Wild (wild oat (Avena fatua); [14]): 10 | Oat, Wild plant response rating (0 to 100 scale) (wild oat (Avena fatua); [15]): 10 | Plant response rating, Oat, Wild (wild oat (Avena fatua); [16]): 50 | Plant response rating, Wheat [9, 14]: 0 | Wheat plant response rating (0 to 100 scale) [9, 15]: 5 | Plant response rating, Wheat [9, 16]: 10 | Plant response rating, Bermudagrass [10, 14]: 75 | Bermudagrass plant response rating (0 to 100 scale) [10, 15]: 85 | Plant response rating, Bermudagrass [10, 17]: 95 | Plant response rating, Bermudagrass [10, 16]: 95 | Plant response rating, Morningglory [11, 14]: 70 | Morningglory plant response rating (0 to 100 scale) [11, 15]: 85 | Plant response rating, Morningglory [11, 16]: 100

O=C1CCCC(OC(=O)C2CC2)=C1C(=O)c1cnc(-c2ccccc2)n(-c2ccccc2)c1=O [Compound 88]
Plant response rating, Flood, Barnyardgrass [1]: 60 | Plant response rating, Barnyardgrass [1, 12]: 20 | Plant response rating, Barnyardgrass [1, 13]: 40 | Barnyardgrass plant response rating [1]: 0 | Plant response rating, Flood, Sedge, Umbrella [2]: 65 | Plant response rating, Sedge, Umbrella [2, 12]: 30 | Plant response rating, Sedge, Umbrella [2, 13]: 40 | Sedge, Umbrella plant response rating [2]: 0 | Plant response rating, Goosegrass [3, 14]: 65 | Goosegrass plant response rating (0 to 100 scale) [3, 15]: 70 | Plant response rating, Goosegrass [3, 16]: 70 | Plant response rating, Crabgrass, Large [4, 14]: 95 | Crabgrass, Large plant response rating (0 to 100 scale) [4, 15]: 98 | Plant response rating, Crabgrass, Large [4, 17]: 98 | Plant response rating, Crabgrass, Large [4, 16]: 98 | Plant response rating, Lambsquarters [5, 14]: 95 | Lambsquarters plant response rating (0 to 100 scale) [5, 15]: 98 | Plant response rating, Lambsquarters [5, 16]: 100 | Plant response rating, Cocklebur [6, 14]: 90 | Cocklebur plant response rating (0 to 100 scale) [6, 15]: 90 | Plant response rating, Cocklebur [6, 17]: 95 | Plant response rating, Cocklebur [6, 16]: 95 | Plant response rating, Foxtail, Green [7, 14]: 95 | Foxtail, Green plant response rating (0 to 100 scale) [7, 15]: 98 | Plant response rating, Foxtail, Green [7, 16]: 100 | Plant response rating, Nutsedge, Yellow [8, 14]: 25 | Nutsedge, Yellow plant response rating (0 to 100 scale) [8, 15]: 65 | Plant response rating, Nutsedge, Yellow [8, 16]: 75 | Plant response rating, Oat, Wild (wild oat (Avena fatua); [14]): 50 | Oat, Wild plant response rating (0 to 100 scale) (wild oat (Avena fatua); [15]): 55 | Plant response rating, Oat, Wild (wild oat (Avena fatua); [16]): 80 | Plant response rating, Wheat [9, 14]: 0 | Wheat plant response rating (0 to 100 scale) [9, 15]: 5 | Plant response rating, Wheat [9, 16]: 5 | Plant response rating, Bermudagrass [10, 14]: 80 | Bermudagrass plant response rating (0 to 100 scale) [10, 15]: 80 | Plant response rating, Bermudagrass [10, 17]: 80 | Plant response rating, Bermudagrass [10, 16]: 85 | Plant response rating, Morningglory [11, 14]: 90 | Morningglory plant response rating (0 to 100 scale) [11, 15]: 90 | Plant response rating, Morningglory [11, 16]: 95
